Results published in patent publication US6737383B1, “Herbicidal oxadiazolidines” (priority 1999, dated 2004).

Experiments:
rape = assay: Test B pre/postemergence rape; assay type: in vivo, Brassica napus
Procedure, shortened: (§1)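 Test chemicals in a non-phytotoxic solvent mixture with surfactant were sprayed preemergence onto planted seeds and postemergence onto plants 2 to 18 cm tall (1- to 4-leaf stage). After twelve to sixteen days in a greenhouse, injury was visually rated against untreated controls from 0 (no effect) to 10 (complete control).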

surinam grass = assay: Test B pre/postemergence surinam grass; assay type: in vivo, Brachiaria decumbens
Procedure, shortened: as §1

corn = assay: Test B pre/postemergence corn; assay type: in vivo, Zea mays
Procedure, shortened: as §1

giant foxtail = assay: Test B pre/postemergence giant foxtail; assay type: in vivo, Setaria faberii
Procedure, shortened: as §1

cocklebur = assay: Test B pre/postemergence cocklebur; assay type: in vivo, Xanthium strumarium
Procedure, shortened: as §1

duck salad = assay: Test B flood test duck salad; assay type: in vivo, Heteranthera limosa
Procedure, shortened: (§2)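 Flood test on plants grown to the 2-leaf stage; treated plants kept in greenhouse twelve to sixteen days, then visually rated against controls on a 0 (no effect) to 10 (complete control) scale.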

wild oat = assay: Test B pre/postemergence wild oat; assay type: in vivo, Avena fatua
Procedure, shortened: as §1

blackgrass = assay: Test B pre/postemergence blackgrass; assay type: in vivo, Alopecurus myosuroides
Procedure, shortened: as §1

pigweed = assay: Test B pre/postemergence pigweed; assay type: in vivo, Amaranthus retroflexus
Procedure, shortened: as §1

sugar beet = assay: Test B pre/postemergence sugar beet; assay type: in vivo, Beta vulgaris
Procedure, shortened: as §1

purple nutsedge = assay: Test B pre/postemergence purple nutsedge; assay type: in vivo, Cyperus rotundus
Procedure, shortened: as §1

smallflower flatsedge = assay: Test B flood test smallflower flatsedge; assay type: in vivo, Cyperus difformis
Procedure, shortened: as §2

bamyardgrass = assay: Test B flood test barnyardgrass; assay type: in vivo, Echinochloa crus-galli
Procedure, shortened: as §2

crabgrass = assay: Test B pre/postemergence crabgrass; assay type: in vivo, Digitaria sanguinalis
Procedure, shortened: as §1

bedstraw = assay: Test B pre/postemergence bedstraw; assay type: in vivo, Galium aparine; conditions: Preemergence; for Bedstraw plant response rating: scale 0 to 10, 0 is no effect, 10 is complete control
Procedure, shortened: as §1

velvetleaf = assay: Test B pre/postemergence velvetleaf; assay type: in vivo, Abutilon theophrasti
Procedure, shortened: as §1

rice = assay: Test B flood test rice; assay type: in vivo, Oryza sativa
Procedure, shortened: as §2

morningglory = assay: Test B pre/postemergence morningglory; assay type: in vivo, Ipomoea hederacea
Procedure, shortened: as §1

wheat = assay: Test B pre/postemergence wheat; assay type: in vivo, Triticum aestivum
Procedure, shortened: as §1

soybean = assay: Test B pre/postemergence soybean; assay type: in vivo, Glycine max
Procedure, shortened: as §1

[1] = Postemergence, Rate 125 g/ha, scale 0 to 10, 0 is no effect, 10 is complete control
[2] = Postemergence, Rate 500 g/ha, scale 0 to 10, 0 is no effect, 10 is complete control
[3] = Preemergence, Rate 62 g/ha, scale of 0 to 10 where 0 is no effect and 10 is complete control
[4] = Preemergence, Rate 125 g/ha, scale 0 to 10, 0 is no effect, 10 is complete control
[5] = Preemergence, Rate 500 g/ha, scale 0 to 10, 0 is no effect, 10 is complete control
[6] = Rate 62 g/ha, Postemergence, scale 0 to 10 (0 no effect, 10 complete control)
[7] = Preemergence, Rate 250 g/ha, scale 0 to 10, 0 is no effect, 10 is complete control
[8] = Postemergence, Rate 250 g/ha, scale 0 to 10
[9] = Rate 62 g/ha, flood test species, Pre-emergence, visual evaluation after twelve to sixteen days
[10] = Rate 125 g/ha, under heading Pre-emergence, flood test species, visual evaluation after twelve to sixteen days
[11] = Rate 250 g/ha, Pre-emergence (flood test species), scale 0 to 10, 0 is no effect, 10 is complete control
[12] = Rate 500 g/ha, Pre-emergence section of Table B, 0 to 10 scale (0 no effect, 10 complete control)

With `CC(C)N(C(=O)n1oc(=O)n(CCNC(=O)CCl)c1=O)c1ccccc1` [Compound 492] the “Rape plant response rating” value (rape; [1]) was 0, the “Plant response rating, Rape” value (rape; [2]) was 0 and the “Plant response rating, Rape” value (rape; [3]) was 0. For the same compound, the “Rape plant response rating” value (rape; [4]) was 0, the “Rape plant response rating” value (rape; [5]) was 0 and the “Rape plant response rating” value (rape; [6]) was 0. For the same compound, the “B. signalgrass plant response rating” value (surinam grass; [1]) was 0, the “B. signalgrass plant response rating” value (surinam grass; Postemergence, Rate 250 g/ha, scale 0 to 10, 0 no effect, 10 complete control) was 0 and the “Plant response rating, B. signalgrass” value (surinam grass; [2]) was 0. The “Plant response rating, B. signalgrass” value (surinam grass; [3]) was 0, the “B. signalgrass plant response rating” value (surinam grass; [4]) was 0 and the “B. signalgrass plant response rating” value (surinam grass; [7]) was 0. The “B. signalgrass plant response rating” value (surinam grass; [5]) was 0, the “B. signalgrass plant response rating” value (surinam grass; [6]) was 0 and the “Corn plant response rating” value (corn; [1]) was 0. The “Corn plant response rating” value (corn; [8]) was 0, the “Plant response rating, Corn” value (corn; [2]) was 0 and the “Plant response rating, Corn” value (corn; [3]) was 0. For the same compound, the “Corn plant response rating” value (corn; [4]) was 0, the “Corn plant response rating” value (corn; [5]) was 0 and the “Corn plant response rating” value (corn; [6]) was 0. For the same compound, the “Giant foxtail plant response rating” value (giant foxtail; [1]) was 0, the “Plant response rating, Giant foxtail” value (giant foxtail; [2]) was 0 and the “Plant response rating, Giant foxtail” value (giant foxtail; [3]) was 2. The “Giant foxtail plant response rating” value (giant foxtail; [4]) was 0, the “Giant foxtail plant response rating” value (giant foxtail; [5]) was 9 and the “Giant foxtail plant response rating” value (giant foxtail; [6]) was 0. The “Cocklebur plant response rating” value (cocklebur; [1]) was 0, the “Cocklebur plant response rating” value (cocklebur; [8]) was 0 and the “Plant response rating, Cocklebur” value (cocklebur; [2]) was 0. The “Plant response rating, Cocklebur” value (cocklebur; [3]) was 0, the “Cocklebur plant response rating” value (cocklebur; [4]) was 0 and the “Cocklebur plant response rating” value (cocklebur; [7]) was 0. For the same compound, the “Cocklebur plant response rating” value (cocklebur; [5]) was 0, the “Cocklebur plant response rating” value (cocklebur; [6]) was 0 and the “Plant response rating, Ducksalad (0 to 10 scale, 0 is no effect, 10 is complete control)” value (duck salad; [9]) was 0. The “Ducksalad plant response rating (0 to 10 scale, 0 is no effect, 10 is complete control)” value (duck salad; [10]) was 0, the “Ducksalad plant response rating” value (duck salad; [11]) was 0 and the “Ducksalad plant response rating” value (duck salad; [12]) was 0. For the same compound, the “Wild oats plant response rating” value (wild oat; [1]) was 0, the “Plant response rating, Wild oats” value (wild oat; [2]) was 0 and the “Plant response rating, Wild oats” value (wild oat; [3]) was 0. For the same compound, the “Wild oats plant response rating” value (wild oat; [4]) was 0, the “Wild oats plant response rating” value (wild oat; [5]) was 0 and the “Wild oats plant response rating” value (wild oat; [6]) was 0. For the same compound, the “Blackgrass plant response rating” value (blackgrass; [1]) was 0, the “Blackgrass plant response rating” value (blackgrass; [8]) was 0 and the “Plant response rating, Blackgrass” value (blackgrass; [2]) was 0. The “Plant response rating, Blackgrass” value (blackgrass; [3]) was 0, the “Blackgrass plant response rating” value (blackgrass; [4]) was 0 and the “Blackgrass plant response rating” value (blackgrass; [7]) was 0. The “Blackgrass plant response rating” value (blackgrass; [5]) was 0, the “Blackgrass plant response rating” value (blackgrass; [6]) was 0 and the “Redroot pigweed plant response rating” value (pigweed; [1]) was 0. The “Plant response rating, Redroot pigweed” value (pigweed; [2]) was 7, the “Plant response rating, Redroot pigweed” value (pigweed; [3]) was 0 and the “Redroot pigweed plant response rating” value (pigweed; [4]) was 0. The “Redroot pigweed plant response rating” value (pigweed; [5]) was 0, the “Redroot pigweed plant response rating” value (pigweed; [6]) was 0 and the “Sugarbeets plant response rating” value (sugar beet; [1]) was 0. The “Plant response rating, Sugarbeets” value (sugar beet; [2]) was 0, the “Plant response rating, Sugarbeets” value (sugar beet; [3]) was 0 and the “Sugarbeets plant response rating” value (sugar beet; [4]) was 0. The “Sugarbeets plant response rating” value (sugar beet; [5]) was 0, the “Sugarbeets plant response rating” value (sugar beet; [6]) was 0 and the “Nutsedge plant response rating” value (purple nutsedge; [1]) was 0. The “Plant response rating, Nutsedge” value (purple nutsedge; [2]) was 0, the “Plant response rating, Nutsedge” value (purple nutsedge; [3]) was 0 and the “Nutsedge plant response rating” value (purple nutsedge; [4]) was 0. For the same compound, the “Nutsedge plant response rating” value (purple nutsedge; [5]) was 0, the “Nutsedge plant response rating” value (purple nutsedge; [6]) was 0 and the “Plant response rating, S. Flatsedge (0 to 10 scale, 0 is no effect, 10 is complete control)” value (smallflower flatsedge; [9]) was 0. For the same compound, the “S. Flatsedge plant response rating (0 to 10 scale, 0 is no effect, 10 is complete control)” value (smallflower flatsedge; [10]) was 0, the “S. Flatsedge plant response rating” value (smallflower flatsedge; [11]) was 0 and the “S. Flatsedge plant response rating” value (smallflower flatsedge; [12]) was 0. For the same compound, the “Plant response rating, Barnyardgrass (0 to 10 scale, 0 is no effect, 10 is complete control)” value (bamyardgrass; [9]) was 0, the “Barnyardgrass plant response rating (0 to 10 scale, 0 is no effect, 10 is complete control)” value (bamyardgrass; [10]) was 0 and the “Barnyardgrass plant response rating” value (bamyardgrass; [11]) was 0. The “Barnyardgrass plant response rating” value (bamyardgrass; [12]) was 0, the “Crabgrass plant response rating” value (crabgrass; [8]) was 0 and the “Plant response rating, Crabgrass” value (crabgrass; [2]) was 0. The “Plant response rating, Crabgrass” value (crabgrass; [3]) was 0, the “Crabgrass plant response rating” value (crabgrass; [4]) was 0 and the “Crabgrass plant response rating” value (crabgrass; [5]) was 3. For the same compound, the “Crabgrass plant response rating” value (crabgrass; [6]) was 0, the “Plant response rating, Bedstraw” value (bedstraw; Rate 62 g/ha, scale of 0 to 10 where 0 is no effect and 10 is complete control) was 0 and the “Bedstraw plant response rating” value (bedstraw; Rate 125 g/ha) was 0. For the same compound, the “Bedstraw plant response rating” value (bedstraw; Rate 250 g/ha) was 0, the “Bedstraw plant response rating” value (bedstraw; Rate 500 g/ha) was 0 and the “Velvetleaf plant response rating” value (velvetleaf; [1]) was 0. For the same compound, the “Plant response rating, Velvetleaf” value (velvetleaf; [2]) was 0, the “Plant response rating, Velvetleaf” value (velvetleaf; [3]) was 0 and the “Velvetleaf plant response rating” value (velvetleaf; [4]) was 0. For the same compound, the “Velvetleaf plant response rating” value (velvetleaf; [5]) was 4, the “Velvetleaf plant response rating” value (velvetleaf; [6]) was 0 and the “Plant response rating, Rice (0 to 10 scale, 0 is no effect, 10 is complete control)” value (rice; [9]) was 0. For the same compound, the “Rice plant response rating (0 to 10 scale, 0 is no effect, 10 is complete control)” value (rice; [10]) was 0, the “Rice plant response rating” value (rice; [11]) was 0 and the “Rice plant response rating” value (rice; [12]) was 0. For the same compound, the “Morningglory plant response rating” value (morningglory; [1]) was 5, the “Plant response rating, Morningglory” value (morningglory; [2]) was 8 and the “Plant response rating, Morningglory” value (morningglory; [3]) was 0. For the same compound, the “Morningglory plant response rating” value (morningglory; [4]) was 0, the “Morningglory plant response rating” value (morningglory; [5]) was 0 and the “Morningglory plant response rating” value (morningglory; [6]) was 0. The “Wheat plant response rating” value (wheat; [1]) was 0, the “Plant response rating, Wheat” value (wheat; [2]) was 0 and the “Plant response rating, Wheat” value (wheat; [3]) was 0. For the same compound, the “Wheat plant response rating” value (wheat; [4]) was 0, the “Wheat plant response rating” value (wheat; [5]) was 0 and the “Wheat plant response rating” value (wheat; [6]) was 0. The “Soybean plant response rating” value (soybean; [1]) was 0, the “Plant response rating, Soybean” value (soybean; [2]) was 0 and the “Plant response rating, Soybean” value (soybean; [3]) was 0. For the same compound, the “Soybean plant response rating” value (soybean; [4]) was 0, the “Soybean plant response rating” value (soybean; [5]) was 0 and the “Soybean plant response rating” value (soybean; [6]) was 0.
